Laboratory results reported in US8182983B2, “Method for determining immune system affecting compounds” (Canimguide Therapeutics AB, priority 2002, dated 2012).

What was measured:
Format in all cases: cell-based, human
[1] = tested on: normal PBMCs; test: Fragmentation of IgG and serum albumin using MMPs, IL-6 inducing activity of supernatants; settings: supernatants tested on normal PBMCs; for release of fragments inducing or modulating IL-6 production from albumin: serum albumin incubated with MMP; for release of fragments inducing or modulating IL-6 production from IgG: IgG incubated with MMP
Method: MMP-1, -2, -13 (R&D Systems) and MMP-3 and -7 (Chemicon, UK) were activated according to instructions of the manufacturer. […] The mixtures were incubated for 5-20 hours at 37° C. Parallel incubations of MMP or the substrates alone, in respective buffer, were set up as controls. The mixtures were buffer exchanged to RPMI as described previously and filtered through a 0.45 μm Millex-HV syringe filter (Millipore, MA, US). Storing of mixtures, when needed, was performed at −70° C. until analysing by gel-electrophoresis and testing for monokine inducing activity in fresh, normal PBMC as described above.

[2] = tested on: PBMC from healthy donors; test: IL-2 induced proliferation of PBMC in the presence of collagen/collagen fragments; settings: collagen 26 ug/ml, PBMCs from healthy donors, autologous serum
Method: 100 μl of RPMI1640 supplemented with 200 IU/ml penicillin, […] streptomycin, 4 mM L-glutamine (all from Sigma Chemical Co. MO, US) and 20% heat-inactivated human serum (autologous or from cancer patients) were added to uncoated, HSA or HSA/IgG coated tissue culture microtiter plates. PBMC, isolated from healthy individuals or patients with metastatic renal cell carcinoma, were diluted in RPMI/2%1-ISA at a concentration of 5×10^5/ml and 100 μl were added to the microtiter wells. Interleukin-2 (IL-2, Proleukin, Chiron, NL), at a final concentration of 120 IU/well, was added to some wells. Cells were cultured for 7 days in a humidified, 5% CO2-atmosphere at 37° C.
Proliferation was assayed by incorporation of 1.6 μCi/well of [3H]-thymidine (Amersham Int., UK) during the last 18 hrs. Mean values of dpm (disintegrations per minute) of triplicates were used for the calculations.
Purified collagen from human skin (Sigma) at a concentration of 100 µg/ml was incubated in 100 mM Tris-HCl, pH 7.6, containing 0.15 M NaCl, 10 mM CaCl2 and 0.05% Brij35 over night at 37° C. The buffer was then exchanged to RPMI1640 by gel filtration through a Sephadex-G25 (PD-10) column (Amersham Biosciences) and filtered through a 0.45 μm Millex-HV syringe filter (Millipore) and frozen at −70° C. until use. […]

[3] = tested on: PBMC from healthy volunteers; test: Inhibition of IL-1Ra production by PBMC with Tosyl
Method: Monokines were assessed by ELISA using the DuoSet ELISA development system for human IL-6, TNF-α or IL-1β (R&D Systems Europe, Ltd. UK) following the manufacturer's recommended procedures. Lower limit of detection was […] for IL-6, […] for TNF-α and […] for IL-1β. IL-10 was detected with a kit from Diaclone Research, FR. The lower limit of detection was […]. Human IL-1Ra was detected with a quantitative sandwich ELISA using a monoclonal mouse anti-human IL-1Ra as capture antibody and a biotinylated goat anti-human IL-1Ra as developing antibody (both from R&D Systems). […] Following incubation for 1 hr at room temperature, plates were washed and the amount of bound IL-1Ra was measured by hydrolysis of paranitrophenyl phosphate (Sigma). Optical density was read at dual wavelengths, 405 nm and 570 nm, respectively, in a Multiscan EX microplate reader (Labsystems). […]
Inhibition of IL-1Ra production by PBMC with Tosyl PBMC (2×10^6/ml) from healthy volunteers were pre-incubated with various concentrations of Na-p-Tosyl-L-lysine chloromethyl ketone (Tosyl, Sigma) diluted in RPMI1640/2% HSA for 30 minutes at 37° C. after which the cell suspensions were washed three times in RPMI/2% HSA. […] Viability of cultured PBMCs were also assessed after 24 hrs by Trypan blue exclusion and found to be 100%. […]

[4] = tested on: PBMC from RCC patients; test: TNF-α in PHA stimulated PBMC cultures with chlorambucil; settings: chlorambucil 1 μg/ml, 72 hours, responders vs non-responders to interleukin-2
Method: PHA stimulated proliferation of PBMC with and without chlorambucil Venous blood was drawn at the indicated time points from RCC patients undergoing IL-2 (Proleukin, Chiron, NL) therapy. Mononuclear cells were isolated by Ficoll-Isopaque (Pharmacia, SE) density gradient centrifugation. 5×10^4 PBMC in a final volume of 200 μl were seeded into round-bottomed microtiter plates (Corning Inc. NY, US) in culture medium consisting of RPMI 1640 supplemented with 100 IU/ml Penicillin, 100 μg/ml Streptomycin (Flow laboratories) and 10% heat-inactivated, autologous fresh serum. […]
PHA-stimulated cultures with or without chlorambucil (1 µg/ml) were set up in parallel as described above for mitogen-stimulated cultures. […] The amount of TNF-α in the SNs was evaluated with an ELISA kit from Immunotech S.A., FR, according to the manufacturer's instructions. […]
Comparisons between the proliferative response to PHA in different groups or at different test occasions were done on logarithmated mean values of dpm of triplicates using unpaired t-test. For the determination of the effect of addition of CHL on the proliferative response of PHA-stimulated PBMCs, a modulation index (MI) was calculated according to the following formula: MI=log(dpm PHA+drug/dpm PHA).

[5] = tested on: normal PBMCs; test: Homogenised, washed tumour tissue incubated with MMP-2, IL-6 inducing activity; settings: MMP-2 5 ng/ml; 20 hours at 37° C.
Method: The collection, washing and homogenisation of tumour cryo sections (3×300 μm) were carried out as described above. The pelleted tumour tissue was suspended in 0.5 ml cold RPMI/PEST. MMP-2 (R&D Systems, UK), activated according to instructions from the manufacturer, was added at a final concentration of 5 ng/ml. The tumour tissue suspension was incubated with MMP-2 for 20 h at 37° C. and the supernatant collected after centrifugation. Parallel incubation of tumour tissue with no addition of MMP-2 was set up as a control. The mixtures were buffer exchanged to RPMI by gel filtration through a Sephadex-G25 (PD-10) column (Amersham Biosciences, SE) and filtered through a 0.45 μm Millex-HV syringe filter (Millipore, MA, US). Finally, the mixtures were analysed by gel-electrophoresis and tested for monokine inducing activity in fresh normal PBMC as described above.

| Molecule | release of fragments inducing or modulating IL-6 production from albumin [1] | release of fragments inducing or modulating IL-6 production from IgG [1] | also measured |
| --- | --- | --- | --- |
| MMP-1: matrix metalloproteinase (R&D Systems), activated | released active fragments | – | – |
| collagen | – | – | effect on IL-2 induced proliferation [2]: strongly inhibitory effect; effect on IL-2 induced proliferation ([2]; listed as collagen/collagen fragments): strong inhibitory effect was demonstrated in two out of three experiments |
| Cc1ccc(S(=O)(=O)NC(CCCCN)C(=O)CCl)cc1 [Tosyl, Na-p-Tosyl-L-lysine chloromethyl ketone] | – | – | Viability of cultured PBMCs by Trypan blue exclusion ([3]; after 24 hrs, PBMC pre-incubated with Tosyl): 100%; effect on production of IL1Ra ([3]; non-toxic concentrations, PBMC from healthy individuals (n=9), plates pre-coated with HSA or HSA/IgG): significantly reduced production |
| MMP-3: matrix metalloproteinase (Chemicon), activated | released active fragments | released active fragments | – |
| O=C(O)CCCc1ccc(N(CCCl)CCCl)cc1 [chlorambucil, Chlorambucil] | – | – | TNF-α production in PHA stimulated cultures with chlorambucil [4]: in non-responders TNF-α production is more stimulated than in responders |
| MMP-7: matrix metalloproteinase (Chemicon), activated | – | released active fragments | – |
| MMP-2: matrix metalloproteinase (R&D Systems), activated (protein, UniProt P08253 110-660, looked up, activated) 72 kDa type IV collagenase: YNFFPRKPKWDKNQITYRIIGYTPDLDPETVDDAFARAFQVWSDVTPLRFSRIHDGEADIMINFGRWEHGDGYPFDGKDGLLAHAFAPGTGVGGDSHFDDDELWTLGEGQVVRVKYGNADGEYCKFPFLFNGKEYNSCTDTGRSDGFLWCSTTYNFEKDGKYGFCPHEALFTMGGNAEGQPCKFPFRFQGTSYDSCTTEGRTDGYRWCGTTEDYDRDKKYGFCPETAMSTVGGNSEGAPCVFPFTFLGNKYESCTSAGRSDGKMWCATTANYDDDRKWGFCPDQGYSLFLVAAHEFGHAMGLEHSQDPGALMAPIYTYTKNFRLSQDDIKGIQELYGASPDIDLGTGPTPTLGPVTPEICKQDIVFDGIAQIRGEIFFFKDRFIWRTVTPRDKPMGPLLVATFWPELPEKIDAVYEAPQEEKAVFFAGNEYWIYSASTLERGYPKPLTSLGLPPDVQRVDAAFNWSKNKKTYIFAGDKFWRYNEVKKKMDPGFPKLIADAWNAIPDNLDAVVDLQGGGHSYFFKGAYYLKLENQSLKSVKFGSIKSDWLGC | released active fragments | released active fragments | release of IL-6 inducing activity from washed tumour tissue [5]: modulated the release of IL-6 inducing activity |
